Source: patent EP0600782A1, “C-11 modified pradimicin derivatives” (priority 1992, dated 1994)
Like-named read-outs stand apart in the source and are kept apart here.

Assays:
[1] = Acute toxicity in mice after a single intravenous dose; type: in vivo
Procedure: (§1) Pradimicins T1 and T2 were evaluated for in vivo efficacy against a Candida albicans A9540 systemic infection in male ICR mice (20-24 g body weight) as described by Oki et al. in "Water-soluble pradimicin derivatives, synthesis and antifungal evaluation of N,N,-dimethyl pradimicins", J. Antibiotics 43:1230-1235, 1990. Five mice at each dose level were challenged intravenously with ten times the 50% lethal dose of the pathogen suspended in saline. Antibiotics were intravenously administered once immediately after the fungal challenge. Infection control animals (n=10) died from 7 to 12 days. The 50% protective dose (PD₅₀) was calculated from the survival rate 20 days after the fungal infection. The acute toxicity of pradimicins T1 and T2 was determined in mice after a single intravenous dose.

[2] = test system: Candida albicans A9540 systemic infection; experiment: In vivo efficacy against systemic infection in mice; set-up: species or system male ICR mice; conditions: for PD50: C. albicans A9540 systemic infection, male ICR mice, single intravenous dose immediately after challenge, survival rate 20 days after infection; for ED50: Candida albicans, iv, 480 h, read-out: PD50
Procedure: as §1

[3] = test system: Candida albicans ATCC 38247; experiment: In vitro antifungal activity (MIC), agar dilution method, 11-xylosyl precursors; type: cell-based; conditions: 10^6 cells/ml, 28°C, 40 hrs
Procedure: (§2) The in vitro antifungal activities of pradimicins T1 and T2 and 11-0-dexylosylpradimicin T1 were determined by the agar dilution method on yeast morphology agar containing 1/15M phosphate buffer (pH 7.0).

[4] = test system: Cryptococcus neoformans D49; experiment: as above; type: cell-based; conditions: yeast morphology agar + 1/15M phosphate buffer (pH 7.0), 10^6 cells/ml, 28°C, 40 hrs
Procedure: as §2

[5] = test system: Candida albicans 83-2-14 (Juntendo); experiment: as above; type: cell-based; conditions: yeast morphology agar + 1/15M phosphate buffer (pH 7.0), 10^6 cells/ml, 28°C, 40 hrs
Procedure: as §2

[6] = test system: Aspergillus fumigatus IAM 2034; experiment: as above; type: cell-based; conditions: 10^6 cells/ml, 28°C, 40 hrs
Procedure: as §2

Candida albicans A9540 = experiment: as above; type: cell-based; conditions: yeast morphology agar + 1/15M phosphate buffer (pH 7.0), 10^6 cells/ml, 28°C, 40 hrs
Procedure: as §2

[7] = test system: Cryptococcus neoformans IAM 4514; experiment: as above; type: cell-based; conditions: 10^6 cells/ml, 28°C, 40 hrs
Procedure: as §2

[8] = test system: Saccharomyces cerevisiae ATCC 9763; experiment: as above; type: cell-based; conditions: 10^6 cells/ml, 28°C, 40 hrs
Procedure: as §2

[9] = test system: Candida tropicalis 85-8 (Kitasato); experiment: as above; type: cell-based; conditions: yeast morphology agar + 1/15M phosphate buffer (pH 7.0), 10^6 cells/ml, 28°C, 40 hrs
Procedure: as §2

[10] = test system: Candida tropicalis IFO 10241; experiment: as above; type: cell-based; conditions: 10^6 cells/ml, 28°C, 40 hrs
Procedure: as §2

[11] = test system: Trichophyton mentagrophytes 4329; experiment: as above; type: cell-based; conditions: yeast morphology agar + 1/15M phosphate buffer (pH 7.0), 10^7 cells/ml, 28°C, 60 hrs
Procedure: as §2

[12] = test system: Candida albicans ATCC 32354 (B311); experiment: as above; type: cell-based; conditions: 10^6 cells/ml, 28°C, 40 hrs
Procedure: as §2

[13] = yeast morphology agar + 1/15M phosphate buffer (pH 7.0)
[14] = ATCC38247, yeast morphology agar + 1/15M phosphate buffer (pH 7.0), read-out: MIC
[15] = IAM2034, yeast morphology agar + 1/15M phosphate buffer (pH 7.0), read-out: MIC
[16] = IAM4514, yeast morphology agar + 1/15M phosphate buffer (pH 7.0), read-out: MIC
[17] = ATCC9763, yeast morphology agar + 1/15M phosphate buffer (pH 7.0), read-out: MIC
[18] = IFO10241, yeast morphology agar + 1/15M phosphate buffer (pH 7.0), read-out: MIC
[19] = ATCC32354, yeast morphology agar + 1/15M phosphate buffer (pH 7.0), read-out: MIC

Molecule | LD50 [1] | PD50 [2] | MIC [3, 13] | MIC [4] | MIC [5] | MIC [6, 13] | MIC (Candida albicans A9540) | MIC [7, 13] | MIC [8, 13] | MIC [9] | MIC [10, 13] | MIC [11] | MIC [12, 13] | ED50 [2] | MIC [3, 14] | MIC ([4]; read-out: MIC) | MIC [6, 15] | MIC (Candida albicans A9540; read-out: MIC) | MIC [7, 16] | MIC [8, 17] | further results
Pradimicin T2 | >600 mg/kg | >50 mg/kg | 1.6 µg/mL | 6.3 µg/mL | 3.1 µg/mL | >100 µg/mL | 3.1 µg/mL | 6.3 µg/mL | 0.8 µg/mL | 6.3 µg/mL | 6.3 µg/mL | 50 µg/mL | 3.1 µg/mL |  |  |  |  |  |  |  | 
C[C@@H]1[C@H](O)[C@@H](C)/C=C/C=C/C=C/C=C/C=C/C=C/C=C/[C@H](O[C@@H]2O[C@H](C)[C@@H](O)[C@H](N)[C@@H]2O)C[C@@H]2O[C@](O)(C[C@@H](O)C[C@@H](O)[C@H](O)CC[C@@H](O)C[C@@H](O)CC(=O)O[C@H]1C)C[C@H](O)[C@H]2C(=O)O [Amphotericin B, reference compound] |  |  |  |  |  |  |  |  |  |  |  |  |  | 0.2 mg/kg |  |  |  |  |  |  | LD50 ([1]; mouse, in vivo, read-out: LD50): 4.5 mg/kg
Pradimicin T1 | 300 mg/kg | 27 mg/kg | 1.6 µg/mL | 3.1 µg/mL | 6.3 µg/mL | 6.3 µg/mL | 6.3 µg/mL | 3.1 µg/mL | 3.1 µg/mL | 25 µg/mL | 12.5 µg/mL | 6.3 µg/mL | 6.3 µg/mL |  |  |  |  |  |  |  | 
Cc1cc2c(c(O)c1C(=O)NCC(=O)O)-c1c(cc3c(c1O)C(=O)c1cc(O)cc(O)c1C3=O)[C@H](O)[C@H]2O[C@@H]1O[C@H](C)[C@H](O)[C@H](O[C@@H]2OC[C@@H](O)[C@H](O)[C@H]2O)[C@H]1O [11-O-Dexylosyl-pradimicin T1] |  |  |  |  |  |  |  |  |  |  |  |  |  |  | 3.1 µg/mL | 6.3 µg/mL | 25 µg/mL | 6.3 µg/mL | 6.3 µg/mL | 3.1 µg/mL | MIC ([5]; read-out: MIC): 3.1 µg/mL; MIC ([9]; read-out: MIC): 12.5 µg/mL; MIC [10, 18]: 12.5 µg/mL; MIC ([11]; read-out: MIC): 12.5 µg/mL; MIC [12, 19]: 3.1 µg/mL
CC(=O)N1CCN(c2ccc(OCC3COC(Cn4ccnc4)(c4ccc(Cl)cc4Cl)O3)cc2)CC1 (centres unmarked) [Ketoconazole, reference compound] |  |  |  |  |  |  |  |  |  |  |  |  |  | > 50 mg/kg | 25 µg/mL | 0.8 µg/mL | 3.1 µg/mL | 50 µg/mL | 0.4 µg/mL | 50 µg/mL | MIC ([9]; read-out: MIC): 100 µg/mL; MIC [10, 18]: 50 µg/mL; MIC ([11]; read-out: MIC): 0.8 µg/mL; MIC [12, 19]: 50 µg/mL
